What was measured:
Type in all cases: biochemical, Pseudomonas sp. MV37
purified TPM [1] = experiment: Specificity to amino group donor (dabsylated alanine quantification, Example 10); settings: pyruvic acid 14 mM, pH 7.5, 30° C., 1 hour; for Relative activity (%): amino group donor 14 mM (28 mM racemic body), n-butylamine = 100%
Protocol: (§1) Specifically, first, a purified polypeptide is added to a substrate solution with the following composition so that the volume thereof is 400 μl. After 1 hour of reaction at 30° C., 20 μl of 3N hydrochloric acid is added to stop the reaction. Next, 80 μl of a 0.2 M aqueous sodium carbonate solution and 200 μl of an acetone solution of 3.3 mg/mL Dabsyl chloride are separately added to 20 μl of the thus obtained reaction solution, followed by 10 minutes of reaction at 70° C. Acetic acid (20 μl) is added to the reaction solution and then the solution is stirred. The reaction solution is analyzed by HPLC under the following conditions, and then the quantity of dabsylated alanine is determined. In addition, the concentration of a purified polypeptide to be used herein is adjusted so that the amount of alanine generated is 2.8 mM or less as determined by the determination method (hereinafter, referred to as activity assay B).
The purified TPM obtained in Example 7 was examined to determine its specificity to amino group donors. First, 20 μL of a purified TPM solution was added to 380 μL of a substrate solution with the composition given below. After 1 hour of reaction at 30° C., 20 μL, of 3 N hydrochloric acid was added to stop the reaction. Next, 80 μl of an aqueous 0.2 M sodium carbonate solution and 200 μl of an acetone solution of 3.3 mg/mL Dabsyl chloride were added to 20 μL, of the thus obtained reaction solution, followed by 10 minutes of reaction at 70° C. 20 μL of acetic acid was added to the reaction solution. The reaction solution was stirred and then analyzed by HPLC under the following conditions, and thus the quantity of dabsylated alanine was determined.
(§2) [High Performance Liquid Chromatography (HPLC) Analysis Conditions] • Column: Deverosil ODS-HG-3 (NOMURA CHEMICAL) • Eluent: acetonitrile/0.045 M acetate buffer (pH4.1)=35/65 (volume ratio) • Flow rate: 0.9 mL/minute • Detection: 254 nm

purified TPM [2] = experiment: Specificity to amino group receptor (Example 12); settings: (S)-1-phenethylamine 25 mM, pH 7.0, 30° C., 5 minutes
Protocol: A substrate solution was added to the purified TPM solution, so that the final concentrations of the components would be as follows. After 5 minutes of reaction at 30° C., 6N hydrochloric acid was added in an amount of 50 μL per mL of the reaction solution, so as to stop the reaction. The reaction solution was analyzed by HPLC under the following conditions.
[High Performance Liquid Chromatography (HPLC) Analysis Conditions] • Column: Wakosil-II 5C18 RS (Wako Pure Chemical Industries, Ltd.) • Eluent: 10 mM potassium phosphate buffer (pH5.3): acetonitrile=3:2 • Flow rate: 1 mL/minute • Detection: 241 nm

purified TPM [3] = experiment: Specificity 2 to amino group donor: typical substrates of ω-amino acid transaminase (Example 11); settings: pyruvic acid 14 mM; for activity of TPM for the amino group donor: amino compound 14 mM, pH 7.5; for Relative activity (%): amino group donor 14 mM, pH 7.5, 30° C., 1 hour, (S)-1-phenethylamine = 100
Protocol: as §1
The purified TPM obtained in Example 7 was examined to determine its reactivity to typical substrates of ω-amino acid transaminase. First, 20 μL of a purified TPM solution was added to 380 μL of a substrate solution with the composition given below. After 1 hour of reaction at 30° C., 20 μL of 3 N hydrochloric acid was added to stop the reaction. Next, 80 μL of a 0.2 M aqueous sodium carbonate solution and 200 μL of an acetone solution of 3.3 mg/mL Dabsyl chloride were separately added to 20 μL of the thus obtained reaction solution, followed by 10 minutes of reaction at 70° C. 20 μL of acetic acid was added to the solution and then it was stirred. The reaction solution was analyzed by HPLC under the following conditions, and thus the quantity of dabsylated alanine was determined.
as §2

CCC(C)N (racemic) [±2-butylamine]
Relative activity (%) (purified TPM [1]): 67% | activity of TPM for the amino group donor (purified TPM [1]): exhibits its activity

O=C1CCN(Cc2ccccc2)C1 [1-benzyl-3-pyrrolidinone]
Relative activity (%) (purified TPM [2]; substrate concentration 2.5 mM): 4.7%

CC(=O)c1ccccn1 [2-acetylpyridine]
Relative activity (%) (purified TPM [2]; substrate concentration 2.5 mM): 16%

CCCCCC(C)=O [2-heptanone]
Relative activity (%) (purified TPM [2]; substrate concentration 2.5 mM): 4.6%

O=C(O)CCC(=O)C(=O)O [2-ketoglutaric acid]
Relative activity (%) (purified TPM [2]; substrate concentration 25 mM): 0%

O=C1CCc2ccccc2C1 [2-tetralone]
Relative activity (%) (purified TPM [2]; substrate concentration 2.5 mM): 17%

NCCCC(=O)O [4-aminobutyric acid]
activity of TPM for the amino group donor (purified TPM [3]): does not exhibit activity | Relative activity (%) (purified TPM [3]): 0%

C[C@H](N)c1ccccc1 [(S)-α-phenethylamine]
Relative activity (%) (purified TPM [3]): 100%

CC(=O)c1cnccn1 [Acetylpyrazine]
Relative activity (%) (purified TPM [2]; substrate concentration 2.5 mM): 23%

CCOC(=O)CC(=O)c1ccccc1 [Benzoylacetic acid ethyl]
Relative activity (%) (purified TPM [2]; substrate concentration 2.5 mM): 13%

O=C(Cc1ccccc1)c1ccccc1 [Benzyl phenyl ketone]
Relative activity (%) (purified TPM [2]; substrate concentration 2.5 mM): 3.8%

CC(=O)CCc1ccccc1 [Benzylacetone]
Relative activity (%) (purified TPM [2]; substrate concentration 2.5 mM): 12%

CCCC=O [Butylaldehyde]
Relative activity (%) (purified TPM [2]; substrate concentration 2.5 mM): 7%

O=CC(=O)O [Glyoxalic acid]
Relative activity (%) (purified TPM [2]; substrate concentration 25 mM): 40%

NCCCC[C@H](N)C(=O)O [L-lysine]
activity of TPM for the amino group donor (purified TPM [3]): does not exhibit activity | Relative activity (%) (purified TPM [3]): 0%

NCCCCN [Putrescine]
activity of TPM for the amino group donor (purified TPM [3]): does not exhibit activity | Relative activity (%) (purified TPM [3]): 0%

CC(=O)C(=O)O [Pyruvic acid]
Relative activity (%) (purified TPM [2]; substrate concentration 25 mM): 100%

NCCS(=O)(=O)O [Taurine]
activity of TPM for the amino group donor (purified TPM [3]): does not exhibit activity | Relative activity (%) (purified TPM [3]): 0%

NCc1ccccc1 [benzylamine]
Relative activity (%) (purified TPM [1]): 95% | activity of TPM for the amino group donor (purified TPM [1]): exhibits its activity

CCCCN [n-butylamine]
Relative activity (%) (purified TPM [1]): 100% | activity of TPM for the amino group donor (purified TPM [1]): exhibits its activity

NCCC(=O)O [β-alanine]
activity of TPM for the amino group donor (purified TPM [3]): does not exhibit activity | Relative activity (%) (purified TPM [3]): 0%

— patent publication US9481870B2, “Nucleic acid encoding a polypeptide having aminotransferase activity, vectors and host cells comprising the nucleic acid” (KANEKA CORPORATION, priority 2010, dated 2016)
